Data set [1] deals with T1, human CB1 receptor (Homo sapiens, UniProt P21554).
T1 construct: expressed in transfected cells; b94 says CHO for CB1
Nature of the data set: [35S]GTPγS binding assay in membranes of CB1 expressing cells. It is filed as biochemical. Here is the method:
(§1) For the in vivo studies, the drugs were dissolved in either saline or emulphor:ethanol:saline (E:E:S) as indicated.
(§2) cLogP calculations. Absolute solubility determinations were not performed. Rather, cLogP calculations were performed using the CS ChemDraw Ultra software (Cambridge Soft Corporation, Cambridge, Mass.). Receptor Binding. HEK-293 cells stably expressing the human CB1 receptor were cultured in DMEM with 10% FBS and Chinese Hamster Ovary (CHO) cells stably expressing the human CB2 receptor were cultured in DMEM with 10% FCS. Cells were harvested by replacement of the media with cold phosphate-buffered saline containing 1 mM EDTA followed by centrifugation at 1000×g for 5 min at 4° C. The pellet was resuspended in 50 mM Tris-HCl containing 320 mM sucrose, 2 mM EDTA and 5 mM MgCl2 (pH 7.4) (centrifugation buffer), then centrifuged at 1000×g for 10 min at 4° C., and the resulting supernatant was saved. This process was repeated twice. The supernatant fractions were combined and centrifuged at 40,000×g for 30 min at 4° C. The resulting P2 pellet was resuspended in assay buffer (50 mM Tris-HCl (pH 7.4), 3 mM MgCl2, 0.2 mM EGTA, and 100 mM NaCl) and protein was determined by the method of Bradford ENRfu(Bradford 1976). Membranes were stored at −80° C. until use. […] The assay was incubated at 30° C. for 1 hr and terminated by addition of ice cold 50 mM Tris-HCl plus BSA (1 mg/ml) (pH 7.4) followed by filtration under vacuum through Whatman GF/B glass fiber filters with 3 washes with cold Tris buffer. Bound radioactivity was determined by liquid scintillation spectrophotometry at 50% efficiency after extraction by shaking samples for 30-60 min with Budget-Solve scintillation fluid. Data are reported as the mean±SEM of three experiments, each performed in triplicate. Ki values were calculated from displacement data using EBDA (Equilibrium Binding Data Analysis; BIOSOFT, Milltown, N.J.). [^35S]GTPγS Binding Assays. Concentration-effect curves were generated by incubating membranes (10 μg prepared from CB1 expressing cells as described above) in assay buffer containing BSA (1 mg/ml) with various concentrations of test compounds in the presence of 20 μM GDP and 0.1 nM [^35S]GTPγS in a 1 ml total volume. […] Basal binding was assessed in the absence of agonist, and nonspecific binding was measured in the presence of 10 μM GTPγS. The reaction was incubated for 90 min at 30° C. and terminated by filtration under vacuum through Whatman GF/B glass fiber filters with 3 washes with cold (4° C.) Tris buffer (50 mM Tris-HCl, pH 7.4). Bound radioactivity was determined by liquid scintillation spectrophotometry at 95% efficiency after extraction overnight in ScintiSafe Econo 1 scintillation fluid. Data are reported as mean±SEM of three experiments, each performed in triplicate. Nonlinear regression analysis was conducted by iterative fitting using JMP (SAS for Macintosh). Net-stimulated [^35S]GTPγS binding is defined as [^35S]GTPγS binding in the presence of drug minus basal and percent stimulation is expressed as (net stimulated [^35S]GTPγS binding/basal)×100%. Behavioral Evaluations. All animals were allowed to acclimate to the observation room overnight. Behavioral effects were assessed in the tetrad model in order to measure potency in producing antinociception, catalepsy, hypothermia, and hypomobility. The baselines for tail-flick latency (2-4 seconds) and rectal temperature were determined prior to i.v. injections. Baseline rectal temperatures were measured using a telethermometer and a thermometer probe inserted to 25 mm (Yellow Springs Instrument Co., Yellow Springs, Ohio). The mice were then given either an i.v. i.c.v. injection of the analog. The mice were placed in individual photocell activity chambers 5 min later. Spontaneous activity was monitored for 10 min in a Digiscan Animal Activity Monitor (Omnitech Electronice, Inc., Columbus, Ohio) as measured by the number of interruptions of 16 photocell beams per chamber.

The target in data set [2] is T2, human CB2 receptor (Homo sapiens, UniProt P34972).
T2 construct: expressed in transfected cells; b94 says HEK for CB2
In words: CB2 receptor binding, [3H]CP55,940 displacement in membranes of transfected cells. The conditions noted are these: Table 1B, mean±SEM. As for the experimental part:
as §2, with “chamber. The total number of beam interruptions during the 10-min period was determined and presented as total counts.” for “chamber.”

The target of data set [3] is T1, human CB1 receptor. In words: CB1 receptor binding, [3H]CP55,940 displacement in membranes of transfected cells. The settings on record: CB1 Ki. As for the experimental part:
as §1, §2

How the values of data set [4] were obtained:
By “water-soluble” we mean that 1 mg of material in 1 ml of water gives a clear solution and is water miscible.
as §1

Data set [5] relates to mice. Nature of the data set: Tail-flick antinociception (T.F.), mouse tetrad. The conditions noted are these: Mus musculus, iv, mice, i.v., vehicle E:E:S (1:1:18); read-out: T.F. ED50 (antinociception in the tail-flick procedure). In kind it is in vivo.
Data set [6] relates to mice. Nature of the data set: Rectal temperature (R.T.), mouse tetrad. It is filed as in vivo. The settings on record: Mus musculus, iv, vehicle E:E:S (1:1:18), read-out: R.T. ED50 (lowering rectal temperature).
Data set [7] deals with mice. In words: Spontaneous activity (S.A.), mouse tetrad. It is filed as in vivo. The conditions noted are these: Mus musculus, iv, vehicle E:E:S (1:1:18), read-out: S.A. ED50 (reducing spontaneous activity).
Data set [8] has as its system mice. In words: Tetrad model, all four behavioral measures together (time course, oral and i.c.v. administration). The settings on record: i.c.v.; analogs dissolved in water, THC in emulphor:ethanol:saline; Table 5 not given. It is filed as in vivo, mouse.
Where [9] appears, read: 1 mg of analog in 1 ml of water, visual observation.

Read-outs that look alike come from different tables or passages of the source.

T1 sequence (P21554 whole entry): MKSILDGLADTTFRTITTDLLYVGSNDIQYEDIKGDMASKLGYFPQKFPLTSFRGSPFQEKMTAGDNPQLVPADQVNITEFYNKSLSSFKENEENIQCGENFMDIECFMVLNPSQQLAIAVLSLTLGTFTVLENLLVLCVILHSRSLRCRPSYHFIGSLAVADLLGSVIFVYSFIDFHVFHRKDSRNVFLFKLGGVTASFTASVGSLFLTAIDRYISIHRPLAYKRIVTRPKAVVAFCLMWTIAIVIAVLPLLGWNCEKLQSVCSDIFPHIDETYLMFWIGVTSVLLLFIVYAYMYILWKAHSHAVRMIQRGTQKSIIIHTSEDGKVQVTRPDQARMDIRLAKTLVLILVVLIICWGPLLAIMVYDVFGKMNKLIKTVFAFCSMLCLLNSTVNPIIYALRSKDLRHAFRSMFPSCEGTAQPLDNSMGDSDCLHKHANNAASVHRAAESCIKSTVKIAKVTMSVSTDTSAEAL
T2 sequence (P34972 whole entry): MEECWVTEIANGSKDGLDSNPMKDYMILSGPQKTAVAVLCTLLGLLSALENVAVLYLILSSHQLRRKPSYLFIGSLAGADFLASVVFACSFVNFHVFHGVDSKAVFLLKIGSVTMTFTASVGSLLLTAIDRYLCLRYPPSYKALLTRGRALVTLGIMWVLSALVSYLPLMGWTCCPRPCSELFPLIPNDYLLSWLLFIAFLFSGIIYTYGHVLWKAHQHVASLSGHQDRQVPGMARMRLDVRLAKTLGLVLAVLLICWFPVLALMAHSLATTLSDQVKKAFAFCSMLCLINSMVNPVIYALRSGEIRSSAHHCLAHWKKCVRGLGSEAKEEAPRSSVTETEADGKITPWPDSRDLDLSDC

Turning to `CC1=CC[C@@H]2[C@@H](C1)c1c(O)cc(C(C)(C)CCCCNC(=O)N3CCOCC3)cc1OC2(C)C` [O-2619, Morpholino-1-carboxylic acid amide], the EC50 in data set [1] (CB1 EC50, [35S]GTPγS binding, mean±SEM) turned out to be 86 ± 3.1 nM. For the same molecule, the Emax in data set [1] (maximal GTPγS binding as percentage of stimulation produced by CP 55,940, read-out: CB1 % CP Stim) came to 116 ± 7.94%. The Ki in data set [2] (read-out: CB2 Ki) is 2.26 ± 0.38 nM; in data set [3] it was 18.6 ± 3.94 nM. In data set [4], the “Solubility (water-soluble)” value is listed as “No”.
Take `CC1=CC[C@@H]2[C@@H](C1)c1c(O)cc(C(C)(C)CCCCN(C(=O)N3CCOCC3)C(=O)N3CCOCC3)cc1OC2(C)C` [O-2620, Di(morpholino-1-carboxylic acid) amide]: the values for the Ki in data set [2] (read-out: CB2 Ki) and in data set [3] were 772 ± 60.5 nM and 3020 ± 579 nM, respectively.
Regarding `CC1=CC[C@@H]2[C@@H](C1)c1c(O)cc(C(C)(C)CCCCNC(=O)Cc3nc(-c4ccccc4)oc3C)cc1OC2(C)C` [O-2590, 5-Methyl-2-phenyl-oxazol-4-yl-acetamide], the Ki in data set [2] (CB2 Ki) came to 169 ± 39.1 nM; in data set [3] (Table 1B, mean±SEM), 890 ± 161 nM. Moreover, the “Solubility (water-soluble)” value in data set [4] (setting [9]) is “No”.
For the molecule `CCCCCc1cc(O)c2c(c1)OC(C)(C)C1CCC(C)=CC21` (stereo not drawn) [Δ^9-THC, Δ^9-tetrahydrocannabinol, reference compound], the ED50 in data set [5] came to 2.77 µmol/kg; in data set [6] it was 2.23 µmol/kg; in data set [7] it was 2.23 µmol/kg. Moreover, the “Activity in the behavioral tests after i.c.v. injection” value in data set [8] is listed as “active with similar potencies in all tests, with the exception of weak antinociceptive activity”. Further, in data set [4] (setting [9]), the “Solubility (water-soluble)” value was “No”.

The record behind these values is patent US20080064679A1, “Water Soluble Cannabinoids” (priority 2004, published 2008).
